Measured values: patent US11718628B2, “SREBP inhibitors comprising a 6-membered central ring” (Capulus Therapeutics, LLC, priority 2018, dated 2023)
Values belong to the compound of their own block, whether it stands above or below them.

Experiments:
SREBP = assay: Reporter screening assay (SRE-luciferase reporter construct); type: cell-based; conditions: Homo sapiens; SREBPv1 reporter cell line HepG2, 24 hours, 0.01 uM to 10 uM; read-out: Reporter Screening IC50 (nM) Activity Range
Method: This assay was used to evaluate the effect on transcriptional activity SREBP of the compounds synthesized according to Examples 1-16, 20, and 22, using an SRE-luciferase reporter construct. On day 1, 10,000 cells were seeded in a 96 well (white) plate as per the plate map in Growth media without antibiotics. Cells were incubated at 37° C. for 8 hours. After 8 hours, cells were washed with DPBS for complete removal of FBS. DPBS was completely removed and Growth media was replaced with phenol free treatment medium (90 μl) with different FBS concentrations. The cells were then incubated at 37° C. for 24 hours with varying doses (0.01 uM to 10 uM) of compounds. Then a Luciferase assay was performed.
Reagents for performing Luciferase assay were stored at −20° C. To a tube of lyophilized assay substrate was added 1 mL Substrate Solvent and mixed well. The Substrate tube after reconstitution was covered with aluminum foil so as to keep it protected from light. The assay buffer was thawed to room temperature. To 20 mL Assay Buffer was added 200 μL of reconstituted 100× Substrate and mixed well. The reconstituted substrate as well as the assay solution (buffer+substrate) was protected from light throughout the procedure by keeping it covered with aluminum foil.
Using a multi-channel pipette, 100 μL Assay Solution (buffer+substrate) was added directly to each sample well in Plate 1, which was incubated for 30 min (plate was covered with aluminum foil). After 30 min incubation, the plate was read for total luminescence. Each well was read for 2 seconds in a plate luminometer. (Microplate reader Envision Microplate reader from Perkin Elmer). Precaution was taken to incubate plate exactly for 30 min prior to reading on the plate reader.
Materials: SREBPv1 Reporter cell line: HepG2—#32251. Growth Medium: MEM (Corning 10-010), 10% FBS, 1% GlutaMax (Invitrogen Catalog #35050061), […] (Invitrogen Catalog #A1113803) and 1% Penicillin-Streptomycin (Pen-Strep). Treatment Media: Phenol-free MEM (Invitrogen Catalog #51200-038) and 1% GlutaMax (Invitrogen Catalog #35050061). Luciferase Assay: LightSwitch Luciferase Assay Kit (Catalog #32032). LDH assay: Pierce LDH Cytotoxicity Assay Kit (Catalog #SD249616).

[1] = system: liver gene expression (ACACA, ACLY, FASN, LSS, PNPLA3); assay: Liver gene expression in mice after oral administration; type: in vivo; conditions: 30 mpk, vs vehicle
Method: (§1) The pharmacodynamic properties of selected compounds were evaluated in mice. The animals were housed in cages with clean bedding, and maintained and monitored for good health in accordance with Test Facility SOPs and at the discretion of the laboratory animal veterinarian. Certified rodent diet was provided. Food and water was available ad libitum. Environmental controls for the animal room were set to maintain a temperature of 22° C. to 25° C., humidity of 40-70% RH, and a 12-hour light/[…]. Normal healthy animals certified by the attending veterinarian were selected and acclimatized for minimum three days prior to initiation of study. Animals were identified with body markings.
(§2) Aliquots of the compounds being evaluated were weighed and triturated with 0.5% methylcellulose (with the addition of 5% N-methyl pyrrolidone when required to remove clumping, as for Z-806) to an appropriate dose concentration. Vials were labeled with the information about study number, test item, concentration and date of preparation. A description of appearance of formulation was recorded (e.g., color, turbidity, etc.). The composition of formulation vehicle was recorded. An aliquot of each dose solution was taken before the dosing began and after dosing was finished, and stored at approximately −20° C. or below for subsequent analysis. The animals were dosed orally through oral gavage needle, and time of dosing was recorded.
(§3) Liver Collection at 6 h or 24 h: Immediately after blood withdrawal for pharmacokinetic evaluation (at 6 or at 24 h), liver tissue was collected without perfusion. Animals were euthanized using carbon dioxide gas in a CO2 chamber. The whole blood was drained by cutting the both side jugular vein and abdominal aorta. The liver was separated out. All the liver samples were divided in two parts. The first part (200 mg approx.) was snap frozen using liquid nitrogen as soon as possible. These samples were immediately transferred to −80° C. for storage. The remaining part was weighed and used for bioanalysis.
RNA Processing and Gene Expression Analysis: Liver Tissue RNA was harvested with the RNEasy kit and 20-100 ng used to synthesize cDNA with random primers following the manufacturer's protocol. Quantitative PCR was performed on 1 pg to 100 ng cDNA for the following genes: ACACA, ACLY, FASN, LSS, PNPLA3. Gene expression levels were determined using ΔΔCT method comparing treated to vehicle treated samples as a baseline, and fold change calculated. The average value for all 5 genes above was averaged and termed to Total Fold Change The results from this evaluation are presented in Table 8.

[2] = Plasma and liver compound levels in mice after oral administration; type: in vivo; conditions: 30 mpk
Method: as §1, §2
After dosing, the mice were anesthetized using gaseous anesthesia. Blood samples were collected through a capillary, guided in retro-orbital plexus, at 6 h or at 24 h. Approximately 100 uL of blood was collected from each mouse, in pre-labeled tubes. The collected blood was stored on ice prior to centrifugation. Blood samples were then centrifuged within 1 hour of collection to separate plasma. Centrifugation was conducted at 2500×g for 15 minutes at 4° C. The plasma was separated and transferred to pre-labeled micro-centrifuge tubes and promptly frozen at −80±10° C. until bioanalysis.
as §3

[3] = In vivo pharmacokinetic properties in rats (IV and PO); set-up: species or system male Sprague Dawley rats
Method: (§4) The in vivo pharmacokinetic properties of compounds by both intravenous and oral administration were evaluated in male Sprague Dawley rats or C57BL/6J mice.
(§5) Animals were housed in cages with clean bedding. Certified rodent diet was provided. Water was available ad libitum. Environmental controls for the animal room were set to maintain a temperature of 22° C. to 25° C., humidity of 40-70% RH, and a 12-hour light/12-hour dark cycle. Normal healthy animals certified by the attending veterinarian were selected and acclimatized for minimum three days prior to initiation of study.
Surgical Procedure for Jugular Vein Cannulation of Rats: Rats were anaesthetized with a single dose of ketamine 50 mg/kg i.p.+xylazine 6 mg/kg i.p. The right jugular vein was exposed, a loose ligature was placed caudally, and the cranial end of vein was ligated. A small incision was made between the ligatures into which the catheter (polyethylene 50 tubing of internal diameter 0.58 mm and outer diameter 0.96 mm) was inserted. The catheter was secured in place by tying the loose ligature around the catheterized vessel. A small incision was made in the scapular region to serve as the exit site of the catheter. The catheter was subcutaneously tunneled and exteriorized through scapular incision. A stay suture was placed in the scapular area. Patency was tested, and catheter was filled with a locking solution (heparinized saline) and sealed with a stainless steel plug. The incision was then sutured with sterile suturing material. Anti-septic solution was applied to the sutured site and animal was placed back in the home cage.
(§6) To evaluate pharmacokinetic properties of intravenous delivery, male Sprague Dawley rats were administered 2.00 mg compound/kg animal weight through the tail vein. The concentration of the compound in the plasma of the animals was evaluated at 0.083, 0.25, 0.5, 1, 2, 4, 8, 12 and 24 hr by taking blood samples from the cannulated jugular vein. For the C5Bl/6J mice, blood samples were collected through a capillary, guided in retro-orbital plexus.
To evaluate pharmacokinetic properties of oral delivery, rats (male Sprague Dawley rats) or mice (C5Bl/6J) were administered 10 mg compound/kg animal weight by mouth. The concentration of compound in the plasma of the animals was evaluated at 0.25, 0.5, 1, 2, 4, 6, 8, 12 and 24 hr by taking blood samples from the cannulated jugular vein (rats) or through a capillary, guided in retro-orbital plexus (mice).

[4] = In vivo pharmacokinetic properties in mice (IV and PO); set-up: species or system C57BL/6J mice; conditions: mouse, in vivo
Method: as §4, §5, §6
[…] The concentration of compound in the plasma of the animals was evaluated at 0.25, 0.5, 1, 2, 4, 6, 8, 12 and 24 hr by taking blood samples from the cannulated jugular vein (rats) or through a capillary, guided in retro-orbital plexus (mice).

SMILES: CC(C)(C)c1cc(-c2cccc(-c3ccc(C(=O)N4CCC(O)CC4)cc3Cl)c2)ccn1 [Compound 5, (3′-(2-(tert-butyl)pyridin-4-yl)-2-chloro-[1,1′-biphenyl]-4-yl)(4-hydroxypiperidin-1-yl)methanone]
IC50 (SREBP): ≤ 100 nM

SMILES: CC(C)OC(=O)Nc1ccc(-c2cncc(-c3ccnc(C4OCCO4)c3)c2)c(Cl)c1 [Compound 20, Isopropyl (4-(2′-(1,3-dioxolan-2-yl)-[3,4′-bipyridin]-5-yl)-3-chlorophenyl)carbamate]
IC50 (SREBP): ≤ 500 nM

SMILES: COc1ncc(-c2ccnc(C(C)(C)C)c2)cc1-c1ccc(C(=O)N2CCC(O)CC2)cc1Cl [Compound 10, (4-(2′-(tert-butyl)-6-methoxy-[3,4′-bipyridin]-5-yl)-3-chlorophenyl)(4-hydroxypiperidin-1-yl)methanone]
IC50 (SREBP): ≤ 3000 nM

SMILES: CC(C)OC(=O)Nc1ccc(-c2cncc(-c3ccnc(C(C)(C)C)c3)c2)c(Cl)c1 [Compound 16, isopropyl (4-(2′-(tert-butyl)-[3,4′-bipyridin]-5-yl)-3-chlorophenyl)carbamate]
IC50 (SREBP): ≤ 500 nM

SMILES: CC(C)(C)c1cc(-c2cncc(-c3ccc(C(=O)N4CCC(O)CC4)cc3Cl)c2)ccn1 [Compound 4, (4-(2′-(tert-butyl)-[3,4′-bipyridin]-5-yl)-3-chlorophenyl)(4-hydroxypiperidin-1-yl)methanone]
IC50 (SREBP): ≤ 100 nM

Continued, in another order:

IC50 (SREBP): ≤ 500 nM
SMILES: CC(C)(C)c1cc(-c2ccnc(-c3ccc(C(=O)N4CCC(O)CC4)cc3Cl)c2)ccn1 [Compound 2, (4-(2′-(tert-butyl)-[4,4′-bipyridin]-2-yl)-3-chlorophenyl)(4-hydroxypiperidin-1-yl)methanone]

IC50 (SREBP): ≤ 1000 nM
SMILES: CC(C)NC(=O)Nc1ccc(-c2cncc(-c3ccnc(C(C)(C)C)c3)c2)c(Cl)c1 [Compound 11, 1-(4-(2′-(tert-butyl)-[3,4′-bipyridin]-5-yl)-3-chlorophenyl)-3-isopropylurea]

IC50 (SREBP): ≤ 1000 nM
SMILES: CC(C)(C)c1cc(-c2cncc(-c3ccc(C(=O)N4CCC(O)CC4)cc3Cl)n2)ccn1 [Compound 9, (4-(6-(2-(tert-butyl)pyridin-4-yl)pyrazin-2-yl)-3-chlorophenyl)(4-hydroxypiperidin-1-yl)methanone]

Liver ng/mg (6 h) ([2]; 6 h): >1000 ng/mg
Plasma ng/mL (6 h) ([2]; 6 h): >1000 ng/mL
Liver ng/mg 24 h ([2]; 24 h): >1000 ng/mg
Plasma ng/mL (24 h) ([2]; 24 h): 100 to 1000 ng/mL
Intravenous Delivery (IV) CL ([3]; IV, 2 mg/kg): 10.7 mL/min/kg
Intravenous Delivery (IV) T1/2 ([3]; IV, 2 mg/kg): 3.19 h
Intravenous Delivery (IV) Vd ([3]; IV, 2 mg/kg): 2.97 L/kg
% F (Bioavailability of oral delivery) ([3]; PO 10 mg/kg vs IV 2 mg/kg): 35%
Oral Administration (PO) AUC0-last ([3]; PO, 10 mg/kg): 5387
Oral Administration (PO) T1/2 ([3]; PO, 10 mg/kg): 3.05 h
Oral Administration (PO) Tmax ([3]; PO, 10 mg/kg): 1 h
% F (Bioavailability of oral delivery) [4]: 82%
Intravenous Delivery (IV) AUC0-last ([4]; iv, 2 mg/kg): 3930 ng·h/mL
Intravenous Delivery (IV) CL ([4]; iv, 2 mg/kg): 8.45 mL/min/kg
Intravenous Delivery (IV) T1/2 ([4]; iv, 2 mg/kg): 3.24 h
Intravenous Delivery (IV) Vd ([4]; iv, 2 mg/kg): 2.37 L/kg
Oral Administration (PO) AUC0-last ([4]; po, 10 mg/kg): 15000 ng·h/mL
Oral Administration (PO) T1/2 ([4]; po, 10 mg/kg): 6.2 h
Oral Administration (PO) Tmax ([4]; po, 10 mg/kg): 0.25 h
SMILES: CC(C)(C)c1cc(-c2cncc(-c3c(Cl)cc(C(=O)N4CCC(O)CC4)cc3Cl)c2)ccn1 [Z-826]
Total Gene FC Time (6 h) ([1]; 6 h): + (>0.751 = +)
Total Gene FC Time (24 h) ([1]; 24 h): ++ (0.51-0.7509 = ++)

IC50 (SREBP): ≤ 100 nM
SMILES: CC(C)(C)c1cc(-c2cncc(-c3ccc(C(=O)N4CCCC(O)C4)cc3Cl)c2)ccn1 (stereo not drawn) [Compound 14, (4-(2′-(tert-butyl)-[3,4′-bipyridin]-5-yl)-3-chlorophenyl)(3-hydroxypiperidin-1-yl)methanone]
